Test results taken from patent publication US20120178720A1, “Bisphosphonates as Inhibitors of Acid Sphingomyelinase” (priority 2009, published 2012).
Like-named read-outs stand apart in the source and are kept apart here.

Tests used:
aSMase = biological target: T1, aSMase (Rattus norvegicus, UniProt F7ETC0); test: fluorescent aSMase assay with HMU-PC substrate; assay type: biochemical; settings: for IC50: read-out: IC50 inhibition of aSMase
T1 construct: Crude preparations containing aSMase or nSMase were made from stripped rat brains; from tissue; host or cells: rat brain
T1 sequence (F7ETC0 1-626): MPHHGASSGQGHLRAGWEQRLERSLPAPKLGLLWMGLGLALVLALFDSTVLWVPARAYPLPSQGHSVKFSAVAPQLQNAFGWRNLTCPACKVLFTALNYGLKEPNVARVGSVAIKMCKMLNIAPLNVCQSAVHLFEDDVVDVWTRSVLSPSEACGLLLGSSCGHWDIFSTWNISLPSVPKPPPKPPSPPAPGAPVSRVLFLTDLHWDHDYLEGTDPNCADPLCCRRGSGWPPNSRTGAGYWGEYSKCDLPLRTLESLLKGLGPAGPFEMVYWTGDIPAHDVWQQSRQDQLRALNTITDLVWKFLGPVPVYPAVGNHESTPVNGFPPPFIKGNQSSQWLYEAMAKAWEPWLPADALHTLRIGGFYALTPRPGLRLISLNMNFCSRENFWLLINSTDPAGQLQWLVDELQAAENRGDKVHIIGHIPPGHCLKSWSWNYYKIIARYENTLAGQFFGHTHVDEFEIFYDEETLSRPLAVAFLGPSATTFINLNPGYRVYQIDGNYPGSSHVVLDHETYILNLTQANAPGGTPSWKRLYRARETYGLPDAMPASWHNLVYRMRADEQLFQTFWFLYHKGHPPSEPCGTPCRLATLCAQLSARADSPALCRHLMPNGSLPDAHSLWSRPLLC
Description: Enzyme assays: Crude preparations containing aSMase or nSMase were made from stripped rat brains, as described before. […] The fluorescent aSMase assay was performed in a 384-well-plate using the HMU-PC (6-Hexadecanoylamino-4-methylumbelliferyl-phosphorylcholine) substrate. Reaction mixtures consisted of 13.3 μL HMU-PC, 13.3 μL reaction-buffer (100 mM NaOAc, pH 5.2, 0.2% (w/v) Na—TC, […], 0.2% (v/v) Triton X-100) and 13.3 μL enzyme preparation. Inhibitors were added in various concentrations and the reactions were incubated for 3 hours at 37° C. in a plate reader (FLUOstar OPTIMA, BMG labtech). The fluorescence of HMU (6-Hexadecanoylamino-4-methylumbelliferone) was measured (excitation 380 nm, emission 460 nm) in real time. Assays using the radio-labelled sphingomyelin gave the same results.

[1] = tested on: α-galactosidase A (α-Gal A); settings: sub-inhibitory intracellular concentrations; cited from earlier work
[2] = tested on: isolated, ventilated and perfused rat lungs; settings: 10 μM; cited from earlier work
[3] = read-out: Inhibition [%] at 20 μM (aSMase, initial phosphonate collection)
[4] = read-out: Inhibition [%] at 20 μM (aSMase, initial bisphosphonate collection)

IC50 (aSMase) | Compound | inhibition at 20 µM (aSMase; [4]) | further results
 | CCCCP(=O)(O)O [Compound 2] |  | inhibition at 20 µM (aSMase; [3]): 2%
 | NC(CP(=O)(O)O)P(=O)(O)O (centres unmarked) [Compound 3] |  | inhibition at 20 µM (aSMase; [3]): 47%
 | O=P(O)(O)CN(CP(=O)(O)O)CP(=O)(O)O [Compound 4] |  | inhibition at 20 µM (aSMase; [3]): 0%
 | O=P(O)(O)CN(CCN(CP(=O)(O)O)CP(=O)(O)O)CCN(CP(=O)(O)O)CP(=O)(O)O [Compound 5] |  | inhibition at 20 µM (aSMase; [3]): -5%
 | NCCCCCC(O)(P(=O)(O)O)P(=O)(O)O [Compound 6] | 54% | 
4.66 ± 1.07 µM | CCCCCC(N)(P(=O)(O)O)P(=O)(O)O [Compound 7a] | 92% | 
 | CC(NCC(=O)O)(P(=O)(O)O)P(=O)(O)O [Compound 8] | 62% | 
 | CCCCNC(P(=O)(O)O)P(=O)(O)O [Compound 9] | 76% | 
 | O=P(O)(O)C(Nc1ccccc1)P(=O)(O)O [Compound 10] | 8% | 
 | C=CCN(CC=C)C(P(=O)(O)O)P(=O)(O)O [Compound 11] | 32% | 
 | CC(C)CN(CC(C)C)C(P(=O)(O)O)P(=O)(O)O [Compound 12] | 2% | 
 | O=P(O)(O)C(N(CO)CO)P(=O)(O)O [Compound 13] | 36% | 
 | CN(C)C(P(=O)(O)O)P(=O)(O)O [Compound 14] | 24% | 
0.35 ± 0.06 µM | CCCCCCCCCC(OP(=O)(O)O)P(=O)(O)O (centres unmarked) [Compound 17, Decyl-1,1-phosphate phosphonate] |  | activity towards aSMase (aSMase): as active as its bisphosphonate analogue 15b
9.5 ± 4 µM | CCCCCC(N(C)C)(P(=O)(O)O)P(=O)(O)O [Compound 19a] |  | 
0.18 ± 0.03 µM | CCCCCCCCCC(N(C)C)(P(=O)(O)O)P(=O)(O)O [Compound 19b, 1-dimethylaminodecyl-1,1-bisphosphonicacid] |  | 
 | OC[C@H]1NC[C@H](O)[C@@H](O)[C@H]1O [DGJ, 1-deoxy-galactonojirimycin] |  | stimulation of α-Gal A in cells [1]: seven- to eight-fold
 | CN(C)CCCN1c2ccccc2CCc2ccccc21 [imipramine] |  | attenuation of PAF-induced oedema formation [2]: attenuated but not completely prevented oedema formation

Compound | IC50 (aSMase) | inhibition at 20 µM (aSMase; [4]) | further results
CCCCCCCC(N)(P(=O)(O)O)P(=O)(O)O [Compound 7b] | 0.04 ± 0.01 µM | 93% | aSMase inhibitory potency relative to PtdIns-3,5P2 (aSMase): about one order of magnitude more potent than PtdIns-3,5P2
CCCCCCCCCC(OP(=O)(OC)OC)P(=O)(OC)OC (centres unmarked) [Compound 16, Decyl-1-dimethylphosphate-1-dimethylphosphohonate] | > 100 µM |  | activity towards aSMase (aSMase): totally inactive
O=P(O)(O)C(O)(Cn1ccnc1)P(=O)(O)O [Compound 20, zoledronic acid, reference compound] | 5.08 ± 0.74 µM |  | 
